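Cells were grown in 96-well plates and exposed to each compound for 48 hours at five concentrations; endpoints were interpolated linearly between bracketing concentrations, or set to the highest concentration if not reached. TGI is the concentration that stops growth completely.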
Legend:
Assay in all cases: growth of human tumour cells (NCI), 48 h
[1] = test system: LOX IMVI melanoma
[2] = test system: NCI-H226 lung
[3] = test system: CCRF-CEM leukemia
[4] = test system: SN12C renal
[5] = test system: HT29 colon
[6] = test system: HS 578T breast
[7] = test system: SW-620 colon
[8] = test system: MALME-3M melanoma
[9] = test system: PC-3 prostate
[10] = test system: T-47D breast
[11] = test system: HCT-15 colon
[12] = test system: OVCAR-8 ovarian
[13] = test system: DU-145 prostate
[14] = test system: KM12 colon
[15] = test system: HCC-2998 colon
[16] = test system: U251 CNS
[17] = test system: K-562 leukemia
[18] = test system: HOP-62 NSCLC
[19] = test system: UACC-257 melanoma

Row | Structure (SMILES) | TGI [1] [µM] | TGI [2] [µM] | TGI [3] [µM] | TGI [4] [µM] | TGI [5] [µM] | TGI [6] [µM] | TGI [7] [µM] | TGI [8] [µM] | TGI [9] [µM] | TGI [10] [µM] | TGI [11] [µM] | TGI [12] [µM] | TGI [13] [µM] | TGI [14] [µM] | TGI [15] [µM] | TGI [16] [µM] | TGI [17] [µM] | TGI [18] [µM] | TGI [19] [µM]
1 | COc1cc(/C=C2/CCCc3ccccc3C2=O)cc(OC)c1OC | > 77 | > 79.8 | > 100 | > 51.4 | > 100 | > 84.2 | > 100 | 29.5 | > 59.3 | > 100 | > 100 | > 69.8 | > 58.3 | > 50.1 | > 74 | > 88.4 | > 23.8 | > 58.9 | > 56.1
2 | C/C(=N\N)C(CN1CCCCC1)C(c1ccccc1)c1c(O)c2ccccc2oc1=O (stereo unspecified) | > 31.6 | > 100 | > 100 | > 100 | > 100 | > 100 | > 100 | > 100 | > 100 | > 100 | > 100 | > 100 | > 100 | > 100 | > 100 | > 100 | > 100 | > 100 | > 100
3 | O=[N+]([O-])c1ccc(CSc2c3ccccc3nc3ccccc23)cc1 | 10.6 | 35.8 | > 22.9 | 9.81 | 6.36 | 11.3 | > 24.4 | 6.04 | 20 | 4.18 | 27.5 | 10.8 | 5.92 | 16.2 | 32.7 | 20.9 | > 34.9 | 35.7 | 10.5
4 | CCCCC1CCCCCCc2[nH]c(/C=C3\N=C(c4ccc[nH]4)C=C3OC)cc21 (stereo unspecified) | – | 3.27 | 0.566 | 1.32 | 1.11 | 1.62 | 1.15 | 0.689 | 2.09 | 2.06 | 1.9 | 1.33 | 3.96 | 4.91 | 1.02 | 0.49 | 1.28 | 0.94 | 2.73
5 | Cc1cc2nn(C3CCCCO3)nc2cc1C (stereo unspecified) | – | > 100 | > 100 | > 100 | > 100 | > 100 | – | > 100 | > 100 | > 100 | > 100 | > 100 | > 100 | > 100 | > 100 | > 100 | > 100 | > 100 | > 100
6 | Nc1nc(N)c2c(CCc3ccc(C(=O)N[C@@H](CCC(=O)O)C(=O)O)cc3)ccnc2n1 | > 100 | > 100 | > 100 | > 100 | > 100 | > 100 | > 100 | > 100 | > 100 | > 100 | > 100 | > 100 | > 100 | > 100 | 0.0952 | > 100 | > 100 | > 100 | > 100
7 | CCCCCCCCCCCCCCCCOP(=O)(O)OP(=O)(O)OCC1OC(n2cnc3c(N)ncnc32)C(O)C1O (stereo unspecified) | > 100 | > 100 | 86.6 | > 100 | > 100 | > 100 | > 100 | > 100 | > 100 | > 100 | > 100 | > 100 | > 100 | > 100 | > 100 | > 100 | > 100 | > 100 | > 100
8 | c1cc2c(cc1NC1=NCCO1)CCCC2 | 11.1 | 11.4 | > 26.7 | 36.6 | 7.28 | 23 | 47.3 | 21.9 | 15.5 | > 88.7 | 22.4 | 12.5 | 24.6 | 10.5 | 9.8 | 24.8 | > 24.5 | 10.9 | > 28.1
9 | C=CC(C)CCC(C/C=C(\C)CCCC(C)C)C(=C)CCCC(C)C (stereo unspecified) | > 100 | > 100 | > 100 | > 100 | – | > 100 | > 100 | > 100 | > 100 | > 100 | > 100 | > 100 | > 100 | > 100 | > 100 | > 100 | > 100 | > 100 | > 100
10 | CSc1ccc(/C=C/C(=O)c2nc3ccccc3[nH]2)cc1 | 45.9 | 56.9 | > 100 | > 100 | 46.2 | > 100 | 50.3 | > 100 | 68.6 | 29.7 | 40.6 | > 100 | 13.2 | 57 | 23.7 | – | > 100 | 82.1 | 67.1
11 | Nc1nc(Cl)cc(NCC2(CO)CC(CCCc3ccccc3)C2)n1 (stereo unspecified) | > 100 | > 100 | > 100 | > 100 | > 100 | > 100 | > 100 | > 100 | > 100 | > 100 | > 100 | > 100 | > 100 | > 100 | > 100 | > 100 | > 100 | > 100 | > 93.7
12 | CC(/C=C/C=C\C=C\C=C(/C)C(=O)NC(C)CO)=C\C(C)C(O)/C(C)=C/C(C)CCc1ccccc1 (stereo unspecified) | 16.5 | 26.5 | > 56.6 | 26.4 | 25.2 | 52.8 | 28.4 | 22.3 | 25.2 | 46.4 | 31.1 | 25 | > 100 | 19.1 | 26.7 | 37.9 | > 53.6 | 37.5 | 12.3
13 | CN(C)CCn1c2c(c3ccccc31)CCc1ccccc1-2 | 32.2 | 26 | 44.6 | 28.3 | 21.1 | 29.7 | 40.4 | 30.5 | 23.5 | 54.8 | 22.5 | 29.5 | 29.8 | 26.3 | 16.7 | 26.8 | – | 29.1 | 27.7

Reference: PubChem BioAssay (NCI)
